Where “and” joins values, the source holds several entries; their conditions need not be identical. Identical values can stand only once.
Experiments:
LDH = LDH activity in NRK-52E cell extract; type: biochemical; conditions: 0.1 μM and 10 μM
Protocol: (§1) As a follow up to Example 8, the effects of the EndoG inhibitors PNR-3-80 and PNR-3-82, at 0.1 μM and 10 μM each, on the activities of four other enzymes including RNase A, protease, LDH, and SOD in NRK-52E cell extract were examined. NRK-52E cells were grown to ˜80% confluence in […]. The medium was aspirated and the cells were rinsed with ice cold 1×PBS, pH 7.4. The cells were lysed in 50 mM Tris-HCl, pH 7.4, 150 mM NaCl, 1% Triton X-100 for 10 min on ice and then briefly sonicated. Cell debris was removed by centrifugation at 13,000×g for 10 min at 4° C. The supernatant was collected and stored at −80° C. until use. LDH, Protease, Superoxide dismutase (SOD), and Ribonuclease A (RNase A) activities were measured by using CytoTox 96® Non-Radioactive Cytotoxicity Assay kit (Promega, Madison, Wis.), Protease Fluorescent Detection kit (Sigma-Aldrich, Saint Louis, Mo.), SOD determination kit (Sigma-Aldrich, Saint Louis, Mo.), and Ribonuclease A Detection kit (Sigma-Aldrich, Saint Louis, Mo.), respectively, according to the manufacturer's instructions.

EndoG [1] = biological target: T1, EndoG (Homo sapiens, UniProt Q14249); assay: Plasmid incision assay; type: biochemical; conditions: agarose gel, FIG. 9
T1 sequence (Q14249 49-297): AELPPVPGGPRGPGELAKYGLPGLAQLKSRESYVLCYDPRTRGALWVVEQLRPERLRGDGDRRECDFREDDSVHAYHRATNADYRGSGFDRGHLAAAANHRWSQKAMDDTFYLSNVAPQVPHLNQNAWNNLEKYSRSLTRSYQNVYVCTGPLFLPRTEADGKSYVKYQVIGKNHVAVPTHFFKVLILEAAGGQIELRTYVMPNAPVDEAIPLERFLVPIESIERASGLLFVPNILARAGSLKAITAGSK
Protocol: A reaction mixture was prepared containing 0.5 μg pECFP plasmid DNA, 2 mM CaCl2, 5 mM MgCl2, 10 mM Tris-HCl, pH 7.4, 0.5 mM dithiothreitol. The test compound [50 ng in DMSO (1 μl)] was added. Recombinant EndoG was then added to the final concentration of 200 ng/ml and the reaction was incubated for 1 h at 37° C. The reaction was terminated by adding 2 μl of 10 mM Tris-HCl, pH 7.4, 1% SDS, 25 mM EDTA, 7.2 mM bromophenol blue. The samples were run in 1% agarose gel in Tris-acetate-EDTA buffer (40 mM Tris, 20 mM acetic acid, 1 mM EDTA, pH 8), at 7 V/cm for 35 min, and DNA was stained with ethidium bromide. An EagleEye scanning densitometer (Stratagene, La Jolla, Calif.) was utilized to quantify the relative amount of endonuclease-treated plasmid DNA present in a covalently-closed circular (supercoiled) DNA, open circular DNA, or linear DNA, or in a digested form.

[2] = system: EndoG-expressing PC3 cells; assay: Cytoprotection against Docetaxel-induced cell death, LDH release and TUNEL assays; type: cell-based, human; conditions: Docetaxel 80 μM, inhibitor 50 μM
Protocol: Docetaxel is an anti-cancer drug used to treat prostate cancer. Human invasive prostate cancer PC3 cells are known to be resistant to anticancer drugs. […] The resulting EndoG-expressing PC3 cells were exposed with Docetaxel (80 μM) in the absence or presence of the inhibitors, PNR-3-80 or PNR-3-82 (50 μM each). The cell death was measured by using two methods, LDH release assay and TUNEL assay. […]

DNase I = biological target: T2, DNase I (Homo sapiens, UniProt P24855); assay: Endonuclease screening assay, specificity; type: biochemical
T2 sequence (P24855 23-282): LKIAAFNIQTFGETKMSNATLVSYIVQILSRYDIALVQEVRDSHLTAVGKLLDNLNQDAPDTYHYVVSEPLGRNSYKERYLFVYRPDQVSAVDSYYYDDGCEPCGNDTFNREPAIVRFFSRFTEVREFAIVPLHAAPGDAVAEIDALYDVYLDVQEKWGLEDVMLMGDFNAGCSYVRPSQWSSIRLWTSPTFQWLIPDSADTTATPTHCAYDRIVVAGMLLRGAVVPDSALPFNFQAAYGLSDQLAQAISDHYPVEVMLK
From the text: (§2) Specificity of a potential inhibitor is important for any in vitro or in vivo application, and generally defines the usefulness of an inhibitor. To determine specificity of the inhibitors for the two EndoG inhibitors, PNR-3-80 and PNR-3-82, their IC50 values for EndoG were compared using the screening assay with the IC50 values for two other endonucleases, DNase I and DNAse II (FIG. 11). These endonucleases were chosen because they represent the majority of endonuclease activity in most mammalian cells and because of their availability as pure enzymes.
(§3) A reaction mixture was prepared in each well of a white 96-well plate (Costar, Corning, N.Y.) as follows: 0.25 μM Cy5.5-labeled oligonucleotide (described in US provisional patent filed Oct. 19, 2012, Ser. No. 61/716,097) 0.3 mM MgCl2, 10 mM Tris-HCl, pH 7.4, 1 μl DMSO containing 5 or 50 ng of test compound, and nuclease-free water for a total reaction volume of 100 μl. The background (negative control) and uninhibited EndoG samples were measured using DMSO only, or DMSO containing recombinant EndoG (4 μg/ml), respectively. After addition of EndoG, fluorescence intensity was kinetically measured on a Bio-Tek Synergy 4.0 plate reader at 37° C. and mean velocity (mRFU/min) within 20 min was automatically calculated by the plate reader. The background was subtracted prior to the calculation of EndoG activity (%). The percent of EndoG activity was calculated from the mean velocity of a compound divided by the mean velocity of DMSO with recombinant EndoG, and the obtained value multiplied by 100.

DNase II = biological target: T3, DNase II (Homo sapiens, UniProt O00115); assay: Endonuclease screening assay, specificity; type: biochemical
T3 sequence (O00115 19-360): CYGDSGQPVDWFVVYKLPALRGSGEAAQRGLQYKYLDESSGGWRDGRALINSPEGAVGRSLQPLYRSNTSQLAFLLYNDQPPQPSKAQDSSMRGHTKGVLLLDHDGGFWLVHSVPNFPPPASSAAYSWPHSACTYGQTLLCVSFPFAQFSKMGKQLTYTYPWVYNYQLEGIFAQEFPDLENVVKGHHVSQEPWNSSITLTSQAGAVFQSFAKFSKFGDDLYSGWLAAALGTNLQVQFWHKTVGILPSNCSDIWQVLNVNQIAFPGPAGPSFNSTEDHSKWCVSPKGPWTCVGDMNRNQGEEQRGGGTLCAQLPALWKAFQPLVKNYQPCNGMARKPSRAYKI
From the text: as §2, §3

22Rv1 cells = assay: Cytoprotection against Cisplatin-induced cell death, LDH release assay; type: cell-based, human; conditions: Cisplatin 60 μM, inhibitor 50 μM
Protocol: To test cytotoxic activities of the inhibitors, human prostrate carcinoma epithelial 22Rv1 cells, which naturally express EndoG, were exposed to Cisplatin (60 μM) in the presence or absence of PNR-3-80 (50 μM) and cell death was measured by the LDH release assay.

RNase A = assay: Ribonuclease A activity in NRK-52E cell extract; type: biochemical; conditions: 0.1 μM and 10 μM
Protocol: as §1

SOD = SOD activity in NRK-52E cell extract; type: biochemical; conditions: 0.1 μM and 10 μM
Protocol: as §1

EndoG [3] = biological target: T1, EndoG; assay: High-throughput EndoG screening assay; type: biochemical
Protocol: as §3

protease = assay: Protease activity in NRK-52E cell extract; type: biochemical; conditions: 0.1 μM and 10 μM
Protocol: as §1

O=C1NC(=S)NC(=O)C1=Cc1cn(C(=O)c2ccc3ccccc3c2)c2ccc(Cl)cc12 [PNR-3-80]
LDH activity (LDH): none of the two tested compounds had any inhibiting activity
protection of supercoiled plasmid DNA from degradation by EndoG (EndoG [1]): significantly protected the plasmid DNA from degradation
cytoprotection against Docetaxel-induced cell death [2]: cytoprotective
IC50 (DNase I): 11.2 µM
effect on DNase II activity (DNase II): did not have any effect
inhibition of Cisplatin-induced cell death (22Rv1 cells): significant and complete inhibition
inhibition of Cisplatin-induced cell death (22Rv1 cells; listed as P-NR-30): complete inhibition
RNase A activity (RNase A): none of the two tested compounds had any inhibiting activity
SOD activity (SOD): none of the two tested compounds had any inhibiting activity
remaining activity at 1 µM (EndoG [3]; 20 min, compound 1 μM, read-out: % EndoG activity in the presence of the compound): 36%
IC50 (EndoG [3]; IC50 against EndoG, EndoG screening assay): 0.671 µM and 0.67 µM
protease activity (protease): none of the two tested compounds had any inhibiting activity
